Measured values reported in patent US20260138981A1, “DIHYDROFOLATE REDUCTASE INHIBITORS FOR ANTI-BIOTIC RESISTANT INFECTIONS” (THE TRUSTEES OF PRINCETON UNIVERSITY, priority 2022, published 2026).

What was measured:
[1] = system: P. aeruginosa PA14 nfxB T39P mutants; assay: Cross resistance of fluorofolin-resistant mutant; assay type: cell-based; conditions: 2×MIC
From the text: NfxB is a transcriptional regulator protein that represses expression of the MexCD-OprN efflux pump.

[2] = system: PA14 mutants with disruptions in mexA, mexB and oprM; assay: MIC against MexAB-OprM transposon mutants; assay type: cell-based, P. aeruginosa; conditions: oprM transposon mutants vs wildtype PA14
Protocol: FIG. 1I is the minimum inhibitory concentration of fluorofolin or trimethoprim against transposon mutants for each component of the MexAB-OprM efflux pump. MIC against wildtype PA14 was calculated to control for each drug stock. MIC values are representative of two independent replicates.
P. aeruginosa PA14 transposon mutants were generated by the Ausubel Lab (http://ausubellab.mgh.harvard.edu/cgi-bin/pa14/home.cgi). The MICs of fluorofolin and TMP against strains with disrupted MexA, MexB, and OprM were determined as above and compared to the parental strain. As transposon mutants in MexB were represented twice in this collection, the MIC was confirmed across both mutant strains.

P. aeruginosa PA14 = assay: MIC in LB Broth; assay type: cell-based; conditions: Pseudomonas aeruginosa; P. aeruginosa PA14, compound alone
Protocol: The minimum inhibitory concentration is defined as the lowest concentration of antibiotic at which no visible growth was detected after 16 hours at 37° C. Overnight cultures were diluted 1:150 in LB Broth and added to a 96-well plate. Antibiotics were serially diluted 1:2 and added to columns of the 96-well plate and grown at 37° C. with continuous shaking. Cell growth was measured by optical density (OD600). MIC assays were performed in either BioTek Synergy HT (Winooski, VT) or Tecan InfiniteM200 Pro (Männedorf, CH) microplate readers.

[3] = system: folate metabolism in P. aeruginosa; assay: Metabolomics (LC-MS metabolite abundance); assay type: cell-based; conditions: PA14, 2×MIC for 15 min, vs solvent control; P=0.0186 and 0.0196
Protocol: Metabolite abundance was quantified in comparison to the solvent only control. Data represents mean±SD for 3 biological replicates. P values were calculated using unpaired t-test using Prism 9 (P values≤0.05)
To test the ability of fluorofolin to inhibit P. aeruginosa DHFR in vivo, metabolomics were performed. As a positive control for DHFR inhibition, we turned to TMP.
Overnight P. aeruginosa PA14 cultures were diluted 1:150 in Gutnick Minimal Media and grown to early-mid exponential phase (OD600=0.4-0.6).
LC-MS analysis of metabolites was performed on Orbitrap Exploris 240 mass spectrometer coupled with hydrophilic interaction liquid chromatography (HILIC)^64. […] Flow rate was 0.15 mL/min, and column temperature was set at 25° C. […] The orbitrap resolution was 180,000 at m/z of 200. The maximum injection time was 200 ms, and the automatic gain control (AGC) target was 1000%. Raw mass spectrometry data were converted to mzXML format by MSConvert (ProteoWizard). Pick-peaking was done on El Maven (v0.8.0, Elucidata).

O=C(O)c1cn(C2CC2)c2cc(N3CCNCC3)c(F)cc2c1=O [ciprofloxacin]
resistance of nfxB T39P mutants [1]: cross-resistant

COc1cc(Cc2cnc(N)nc2N)cc(OC)c1OC [trimethoprim, reference compound]
change of MIC in efflux pump mutants [2]: large reductions in MIC
MIC (P. aeruginosa PA14): 125 µg/mL
abundance of AICAR and dUMP [3]: significant upregulation
